One assay has as its target Smo receptor (Homo sapiens, UniProt Q99835). Kind of assay: competitive binding assay displacing fluorescently-labeled Bodipy-Cyclopamine. The settings on record: displacement of Bodipy-Cyclopamine; assay described in WO2009074300; read-out: Ki, binding affinity with the Smo receptor.
A further assay deals with Hh pathway. Description: alkaline phosphatase-based assay of Hh pathway inactivation. The format is cell-based. The settings on record: alkaline phosphatase-based assay described in WO2009074300. How it is done:
The level of inactivation of the Hh pathway resulting from this binding was determined using the alkaline phosphatase-based assay described in WO2009074300, resulting in an IC50 value below 30 nM.

Chain of Smo receptor (Q99835 28-787): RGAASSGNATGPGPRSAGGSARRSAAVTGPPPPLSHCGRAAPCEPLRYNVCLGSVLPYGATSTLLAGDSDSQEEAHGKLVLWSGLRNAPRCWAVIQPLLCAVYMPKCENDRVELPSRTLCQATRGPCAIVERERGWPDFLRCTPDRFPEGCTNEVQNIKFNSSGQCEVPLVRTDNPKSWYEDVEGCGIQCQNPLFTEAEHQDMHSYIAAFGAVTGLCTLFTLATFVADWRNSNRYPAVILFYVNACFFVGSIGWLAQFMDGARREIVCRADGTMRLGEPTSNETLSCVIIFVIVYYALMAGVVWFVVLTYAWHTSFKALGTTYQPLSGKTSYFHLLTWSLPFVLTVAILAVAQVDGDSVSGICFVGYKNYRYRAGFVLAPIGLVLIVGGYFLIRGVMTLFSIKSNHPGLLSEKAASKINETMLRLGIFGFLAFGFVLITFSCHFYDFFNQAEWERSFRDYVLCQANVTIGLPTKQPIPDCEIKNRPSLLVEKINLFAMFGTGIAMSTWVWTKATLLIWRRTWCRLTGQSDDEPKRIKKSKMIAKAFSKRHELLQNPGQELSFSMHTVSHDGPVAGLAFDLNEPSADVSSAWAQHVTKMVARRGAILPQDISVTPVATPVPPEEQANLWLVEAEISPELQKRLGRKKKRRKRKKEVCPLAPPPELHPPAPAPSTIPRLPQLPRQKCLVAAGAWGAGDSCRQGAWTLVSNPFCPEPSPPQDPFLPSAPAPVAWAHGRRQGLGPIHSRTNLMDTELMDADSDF

What is called Ki is a dissociation constant, usually derived from enzyme kinetics or from competition with a known ligand. Broadly, the IC50 is the midpoint of a concentration-inhibition curve. Low values mean higher potency, high ones lower potency. As for `Cc1ccc(-c2cc(N3CCC(C(=O)N4CCN(C)CC4)CC3)ccc2Cl)nc1` [Compound C, {1-[4-Chloro-3-(5-methyl-pyridin-2-yl)-phenyl]-piperidin-4-yl}-(4-methyl-piperazin-1-yl)-methanone], on Smo receptor, the inhibition constant Ki is below 0.1 µM. In addition, in the assay with Hh pathway, the IC50 was below 0.03 µM.

The values above are taken from patent publication US20150210669A1, “COMPOUND FOR THE TREATMENT OF TUMOURS AND TUMOUR METASTASES” (SIENA BIOTECH S.P.A., priority 2010, published 2015).
